Activity calls are given as the source filed them.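 How the source made its calls: active means compounds whose fitted half-maximal concentration is at most ten times their top valid tested dose; inconclusive means flat fit showing moderate inhibition, or poor fit quality; inactive means the rest.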

In general, AC50 refers to the concentration giving half of the maximal activity seen.

The assay concerns the target Aurora kinase B (Homo sapiens) (UniProt Q96GD4). As to the kind of experiment: AURKB enzyme activity inhibitors – biochemical, scintillation, dry powder, counter-screen for STK33 inhibitor project, dose response (AID 588757). The note with it: ATP at Km, gamma-32P-ATP, 40 min room temperature, P30 filtermat scintillation counting; for activity change, negative = inhibition: at 3 µM (top of the series). Background: A counterscreen serves to expose hits that act by an unwanted route or on another target.

Sequence of Aurora kinase B (Homo sapiens) (Q96GD4 whole entry, looked up): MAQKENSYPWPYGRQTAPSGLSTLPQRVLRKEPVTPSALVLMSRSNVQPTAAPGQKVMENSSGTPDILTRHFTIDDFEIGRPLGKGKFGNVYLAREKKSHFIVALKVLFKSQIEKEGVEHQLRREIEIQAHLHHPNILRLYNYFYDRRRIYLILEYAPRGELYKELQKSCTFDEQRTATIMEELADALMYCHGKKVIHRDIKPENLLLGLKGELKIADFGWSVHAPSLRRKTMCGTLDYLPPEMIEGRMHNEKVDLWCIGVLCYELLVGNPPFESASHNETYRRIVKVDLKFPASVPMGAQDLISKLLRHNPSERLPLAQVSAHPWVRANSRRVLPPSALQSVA

For the compound `Cc1ncc(/C=C2\C(=O)Nc3ccccc32)[nH]1`, the AC50 is 346 nM.

For `O=C(Nc1ccccc1-c1ccccc1)c1ccc(Br)o1`, the AC50 is 1660 nM.

For `CC(C)n1cnc2c(Nc3cccc(Cl)c3)nc(NCCO)nc21`, the AC50 is 1470 nM. Regarding `CCCn1c(NC(=O)c2cccc(S(=O)(=O)N3CCCC3)c2)nc2ccccc21`, the half-maximal activity concentration (AC50) was 170 nM. Take `O=S(=O)(c1cccc2cnccc12)N1CCCNCC1`: the “activity change, negative = inhibition” value is “inactive”. Take `O=C(Nc1ccccc1-c1nc2ccccc2[nH]c1=O)c1cccs1`: the “activity change, negative = inhibition” value was “inactive”. In the case of `COc1cc(C(=O)NC2CCN(C)CC2)ccc1Nc1ncc2c(n1)N(C1CCC(O)CC1)CCC(=O)N2C` (centres undefined), the “activity change, negative = inhibition” value was “inactive”.

As to `COc1cc(/C=C2\SC(N)=NC2=O)ccc1O`, the “activity change, negative = inhibition” value was “inactive”.

On to `Oc1ccc(Nc2nc(-c3ccccc3O)nc3ccccc23)cc1`, for which the AC50 was 142 nM. With `COc1cc(/C=N/n2c(-c3ccccc3)n[nH]c2=S)ccc1O`, the “activity change, negative = inhibition” value was “inactive”. Turning to `CC(=O)N(C)c1ccc(N=Cc2c(O)ccc3ccccc23)cc1`, the “activity change, negative = inhibition” value is “inactive”. Still for that read-out and setting: for `COC(=O)c1ccc(COc2ccccc2/C=C/C(=O)c2ccc(OCC(=O)O)cc2)cc1` the value was “inactive”. As for `CCOc1ccccc1C(=O)Nc1cc(Cl)ccc1O`, the AC50 is > 3000 nM (inactive). Still for that read-out and setting: next, `Nc1nc(-c2cc(O)ccc2[N+](=O)[O-])cc(-c2ccccc2)c1[N+](=O)[O-]`: 12.6 nM.

Values taken from PubChem BioAssay AID588757 (Broad Institute, 2011).
